According to US3965109A, “Certain aryl amino pyridines” (priority 1971, dated 1976):

Assays:
[1] = system: Puccinia recondita (wheat); assay: Fungicidal test against foliar disease A (foliage spray plus soil drench); format: in vivo; settings: 100 ppm spray and drench; 10 days
[2] = system: Meloidogyne incognita (nematodes); assay: Pest toxicity test; format: in vivo; settings: 0.01% by weight; water; 1 day
[3] = system: Phytophthora infestans (tomato); format: in vivo; settings: 100 ppm spray and drench; 3 days
[4] = system: Plasmopara viticola (vine); assay: Fungicidal test against foliar disease C (foliage spray plus soil drench); format: in vivo; settings: 100 ppm spray and drench; 10 days
[5] = system: Uncinula necator (vine); assay: Fungicidal test against foliar disease D (foliage spray plus soil drench); format: in vivo; settings: 100 ppm spray and drench; 10 days
[6] = system: Agriolimax reticulatus (slugs); assay: Molluscicidal activity test; format: in vivo, Agriolimax reticulatus (Mull); settings: pellet with 4% by weight; 6 days; 10°C
In short: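 Slugs were starved for 24 hours, then housed two per dish, in duplicate, under high humidity at 10°C. They fed on pellets dried to contain 4% w/w of test compound. Mortality was scored on day 6.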

[7] = system: Aphis fabae; assay: Pest toxicity test; format: in vivo; settings: 0.1% by weight; broad bean; 2 days
[8] = system: Aedes aegypti (mosquito larvae); assay: Pest toxicity test; format: in vivo; settings: for Mortality grading (kill): 0.01% by weight, water, 1 day
[9] = system: Musca domestica (houseflies); assay: Pest toxicity test, contact test; format: in vivo; settings: 0.1% by weight; milk/sugar; 2 days; flies sprayed directly
[10] = system: Tetranychus telarius (red spider mites, adults); assay: Pest toxicity test; format: in vivo; settings: 0.1% by weight; French bean; 3 days
[11] = system: Aedes aegypti (mosquito adults); assay: Pest toxicity test; format: in vivo; settings: 0.01% by weight; plywood; 1 day
[12] = system: Pieris brassicae (cabbage white caterpillars); assay: Pest toxicity test; format: in vivo; settings: 0.1% by weight, 2 days
[13] = system: Megoura viceae; assay: Pest toxicity test; format: in vivo; settings: 0.1% by weight; broad bean; 2 days
[14] = system: Phaedon cochleariae (mustard beetles); assay: Pest toxicity test; format: in vivo
[15] = system: Piricularia oryzae (rice); format: in vivo; settings: 100 ppm spray and drench; 7 days
[16] = system: Tetranychus telarius (red spider mites, eggs); assay: Pest toxicity test; format: in vivo; settings: 0.1% by weight; French bean; 3 days
[17] = system: Plutella maculipennis (diamond back moth larvae); assay: Pest toxicity test; format: in vivo
[18] = system: Erwinia carotovora; assay: Antibacterial agar test (B4); format: cell-based; settings: 50 ppm; 5 days
[19] = system: Pseudomonas syringae; assay: Antibacterial agar test (B6); format: cell-based; settings: 50 ppm; 5 days
[20] = system: Corynebacterium michiganense; assay: Antibacterial agar test (B2); format: cell-based; settings: 50 ppm; 5 days
In short: (§1)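 Bacterial growth on nutrient agar containing 50 ppm final test compound (added from an acetone solution or suspension) was scored 5 days after multipoint inoculation, using graded ratings. Plates were dried overnight before inoculation.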

[21] = system: Agrobacterium tumifaciens; assay: Antibacterial agar test (B1); format: cell-based; settings: 50 ppm; 5 days
[22] = system: Xanthomonas oryzae; format: cell-based; settings: 50 ppm; 5 days
[23] = system: Xanthomonas malvacearum; assay: Antibacterial agar test (B3); format: cell-based; settings: 50 ppm; 5 days
In short: as §1

[24] = system: Streptomyces scabies; assay: Antibacterial agar test (B7); format: cell-based; settings: 50 ppm; 5 days
[25] = 0.1% by weight, mustard/paper, 2 days

Row | SMILES | Amount of disease grading, disease A (Table 4) [1] | Mortality grading (kill) [2] | Amount of disease grading, disease B (Table 4) [3] | Amount of disease grading, disease C (Table 4) [4] | Amount of disease grading, disease D (Table 4) [5] | % Kill of slugs [6] [%] | Mortality grading (kill) [7] | Mortality grading (kill) [8] | Mortality grading (kill), contact test [9] | Mortality grading (kill) [10] | Mortality grading (kill) [11] | Mortality grading (kill) [12] | Mortality grading (kill) [13] | Mortality grading (kill) ([14]; in vivo) | Amount of disease grading, disease E (Table 4) [15] | Mortality grading (kill) [16] | Mortality grading (kill) ([17]; in vivo) | Antibacterial activity grading B4 [18] | Antibacterial activity grading B6 [19] | Antibacterial activity grading B2 [20] | also measured
1 | Fc1nc(F)c(Cl)c(Nc2c(F)c(F)c(Br)c(F)c2F)c1Cl [Compound 30, 4(4-Bromo-2,3,5,6-tetrafluoroanilino)-3,5-dichloro-2,6-difluoropyridine] | 0 (61 to 100) | 3 (3 represents over 90% kill) | 1 (26 to 60) | 3 (0 to 5) | 0 (61 to 100) | 100 | 0 (O represents less than 30% kill) | 3 (3 represents over 90% kill) | 0 (O represents less than 30% kill) | 3 (3 represents over 90% kill) | 2 (2 represents 60 - 90% kill) | 3 (3 represents over 90% kill) | 0 (O represents less than 30% kill) | 0 (key: O represents less than 30% kill; 1 represents 30 - 49% kill; 2 represents 60 - 90% kill; 3 represents over 90% kill; C indicates a chemosterilant effect.; A indicates an antifeeding effect.) | 0 (61 to 100) | 0 (O represents less than 30% kill) | 1 (key: O represents less than 30% kill; 1 represents 30 - 49% kill; 2 represents 60 - 90% kill; 3 represents over 90% kill; C indicates a chemosterilant effect.; A indicates an antifeeding effect.) |  |  |  | 
2 | N#Cc1c(F)c(F)c(Nc2c(Cl)c(F)nc(F)c2Cl)c(F)c1C#N [Compound 33, 3,5-Dichloro-4(3,4-dicyano-2,5,6-trifluoroanilino) 2,6-difluoropyridine] | 2 (6 to 25) | 0 (O represents less than 30% kill) | 3 (0 to 5) | 3 (0 to 5) | 2 (6 to 25) |  | 0 (O represents less than 30% kill) | 0 (O represents less than 30% kill) |  | 3 (3 represents over 90% kill) | 2 (2 represents 60 - 90% kill) | 3 (3 represents over 90% kill) | 0 (O represents less than 30% kill) | 0 (key: O represents less than 30% kill; 1 represents 30 - 49% kill; 2 represents 60 - 90% kill; 3 represents over 90% kill; C indicates a chemosterilant effect.; A indicates an antifeeding effect.) | 3 (0 to 5) | 3 (3 represents over 90% kill) | 1 (key: O represents less than 30% kill; 1 represents 30 - 49% kill; 2 represents 60 - 90% kill; 3 represents over 90% kill; C indicates a chemosterilant effect.; A indicates an antifeeding effect.) | 3 (0 to 5) | 3 (0 to 5) | 3 (0 to 5) | Antibacterial activity grading B1 [21]: 3 (0 to 5); Antibacterial activity grading B5 [22]: 3 (0 to 5); Antibacterial activity grading B3 [23]: 3 (0 to 5); Antibacterial activity grading B7 [24]: 3 (0 to 5)
3 | O=[N+]([O-])c1cc(C(F)(F)F)ccc1Nc1c(Cl)c(F)nc(F)c1Cl [Compound 16, 3,5-Dichloro-2,6-difluoro-4(2-nitro-4-trifluoromethylanilino) pyridine] |  | 2 (2 represents 60 - 90% kill) |  |  |  | 50 | 0 (O represents less than 30% kill) | 0 (O represents less than 30% kill) | 0 (O represents less than 30% kill) | 2 (2 represents 60 - 90% kill) | 0 (O represents less than 30% kill) | 0 (O represents less than 30% kill) | 0 (O represents less than 30% kill) | 0 (key: O represents less than 30% kill; 1 represents 30 - 49% kill; 2 represents 60 - 90% kill; 3 represents over 90% kill; C indicates a chemosterilant effect.; A indicates an antifeeding effect.) |  | 0 (O represents less than 30% kill) | 0 (key: O represents less than 30% kill; 1 represents 30 - 49% kill; 2 represents 60 - 90% kill; 3 represents over 90% kill; C indicates a chemosterilant effect.; A indicates an antifeeding effect.) |  |  |  | Amount of disease grading, disease A [1]: 0 (61 to 100); Amount of disease grading, disease B [3]: 0 (61 to 100); Amount of disease grading, disease C [4]: 3 (0 to 5); Amount of disease grading, disease D [5]: 0 (61 to 100); Amount of disease grading, disease E [15]: 0 (61 to 100)
4 | COc1ccc(Nc2c(Cl)c(F)nc(F)c2Cl)c([N+](=O)[O-])c1 [Compound 18, 3,5-Dichloro-2,6-difluoro-4(4-methoxy-2-nitroanilino)pyridine] |  | 0 (O represents less than 30% kill) |  |  |  | 50 | 0 (O represents less than 30% kill) | 0 (O represents less than 30% kill) |  | 0 (O represents less than 30% kill) | 0 (O represents less than 30% kill) | 0 (O represents less than 30% kill) | 0 (O represents less than 30% kill) | 0 (key: O represents less than 30% kill; 1 represents 30 - 49% kill; 2 represents 60 - 90% kill; 3 represents over 90% kill; C indicates a chemosterilant effect.; A indicates an antifeeding effect.) |  | 2 (2 represents 60 - 90% kill) | 0 (key: O represents less than 30% kill; 1 represents 30 - 49% kill; 2 represents 60 - 90% kill; 3 represents over 90% kill; C indicates a chemosterilant effect.; A indicates an antifeeding effect.) |  |  |  | 
5 | O=[N+]([O-])c1cc(Cl)c(Nc2c(Cl)c(F)nc(F)c2Cl)cc1Cl [Compound 24, 3,5-Dichloro-2,6-difluoro-4(2,5-dichloro-4nitro-anilino)pyridine] | 0 (61 to 100) | 0 (O represents less than 30% kill) | 3 (0 to 5) | 3 (0 to 5) | 3 (0 to 5) |  | 0 (O represents less than 30% kill) | 3 (3 represents over 90% kill) | 1 (1 represents 30 - 49% kill) | 3 (3 represents over 90% kill) | 0 (O represents less than 30% kill) | 0 (O represents less than 30% kill) | 0 (O represents less than 30% kill) | 0 (key: O represents less than 30% kill; 1 represents 30 - 49% kill; 2 represents 60 - 90% kill; 3 represents over 90% kill; C indicates a chemosterilant effect.; A indicates an antifeeding effect.) | 0 (61 to 100) | 0 (O represents less than 30% kill) | 0 (key: O represents less than 30% kill; 1 represents 30 - 49% kill; 2 represents 60 - 90% kill; 3 represents over 90% kill; C indicates a chemosterilant effect.; A indicates an antifeeding effect.) | 3 (0 to 5) | 3 (0 to 5) | 3 (0 to 5) | Antibacterial activity grading B1 [21]: 3 (0 to 5); Antibacterial activity grading B5 [22]: 3 (0 to 5); Antibacterial activity grading B3 [23]: 3 (0 to 5); Antibacterial activity grading B7 [24]: 3 (0 to 5)
6 | Fc1ccc(Nc2c(Cl)c(F)nc(F)c2Cl)cc1 [Compound 4, 3,5-Dichloro-2,6-difluoro-4(p-fluoroanilino)pyridine] |  | 2 (2 represents 60 - 90% kill) |  |  |  | 100 | 0 (O represents less than 30% kill) | 0 (O represents less than 30% kill) | 0 (O represents less than 30% kill) | 0 (O represents less than 30% kill) | 0 (O represents less than 30% kill) | 0 (O represents less than 30% kill) | 0 (O represents less than 30% kill) |  |  | 0 (O represents less than 30% kill) |  |  |  |  | abnormal growth effects in larva of mosquitos ([8]; in vivo): abnormal growth effects; Mortality grading (kill) [14, 25]: 0 (O represents less than 30% kill); Mortality grading (kill) [17, 25]: 0 (O represents less than 30% kill)
